The experiment relates to chronic stomatitis. The experiment is described as follows: Effectiveness of glutathione in treatment of cat stomatitis. The format is in vivo.
[1] abbreviates: one cat with AIDS and serious chronic stomatitis, 30 mg/kg per day mixed in the feed for two weeks.

In the case of `N[C@@H](CCC(=O)N[C@@H](CS)C(=O)NCC(=O)O)C(=O)O` [reduced glutathione, gamma-L-Glu-L-Cys-Gly], under setting [1], the appetite result is “improved”; the “fauces erosion and gum inflammation” value was “dramatic improvements”. For the compound interferon [reference compound], for the setting “same cat, nearly 10 years of treatment before the glutathione”, the “improvement of chronic stomatitis” value is listed as “no improvement”.

Source of the values: patent publication US8067537B2, “Composition and method for treatment of stomatitis” (Kyowa Hakko Bio Co., Ltd., priority 2004, dated 2011).
